Data set [1] has as its system HCT-116. As to the kind of experiment: cells. Conditions: Homo sapiens, time 72 hrs. Type of data set: functional.
Data set [2] relates to 4T1. As to the kind of experiment: cells. It is filed as functional. Conditions: Mus musculus, time 72 hrs.
The subject of data set [3] is SK-OV-3. Description: cells. Type of data set: functional. Conditions: Homo sapiens, time 72 hrs.
In data set [4] the test system is K562. Description: cells. Type of data set: functional. Conditions: Homo sapiens, time 72 hrs.
Data set [5] concerns B16-F10. Description: cells. Type of data set: functional. Conditions: Mus musculus, time 72 hrs.
Data set [6] is described as follows: Antiproliferative activity against human HK-2 cells incubated for 72 hrs by MTT assay.
The test system of data set [7] is B16-F10. As to the kind of experiment: Antiproliferative activity against mouse B16-F10 cells incubated for 72 hrs by MTT assay. Type of data set: functional, cell-based. Conditions: B16-F10, 72 h.
Data set [8] concerns K562. Description: Antiproliferative activity against human K562 cells incubated for 72 hrs by CCK8 assay. Type of data set: functional, cell-based. Conditions: K562, 72 h.
In data set [9] the test system is 4T1. Description: Antiproliferative activity against mouse 4T1 cells incubated for 72 hrs by MTT assay. It is filed as functional, cell-based. Conditions: 4T1, 72 h.
The test system of data set [10] is HCT-116. As to the kind of experiment: Antiproliferative activity against human HCT-116 cells incubated for 72 hrs by MTT assay. Type of data set: functional, cell-based. Conditions: HCT-116, 72 h.
Data set [11] deals with SK-OV-3. Description: Antiproliferative activity against human SK-OV-3 cells incubated for 72 hrs by MTT assay. It is filed as functional, cell-based. Conditions: SK-OV-3, 72 h.
The target of data set [12] is T1, Protein deacetylase HDAC6 (Homo sapiens, UniProt Q9UBN7).
T1 sequence (Q9UBN7 whole entry): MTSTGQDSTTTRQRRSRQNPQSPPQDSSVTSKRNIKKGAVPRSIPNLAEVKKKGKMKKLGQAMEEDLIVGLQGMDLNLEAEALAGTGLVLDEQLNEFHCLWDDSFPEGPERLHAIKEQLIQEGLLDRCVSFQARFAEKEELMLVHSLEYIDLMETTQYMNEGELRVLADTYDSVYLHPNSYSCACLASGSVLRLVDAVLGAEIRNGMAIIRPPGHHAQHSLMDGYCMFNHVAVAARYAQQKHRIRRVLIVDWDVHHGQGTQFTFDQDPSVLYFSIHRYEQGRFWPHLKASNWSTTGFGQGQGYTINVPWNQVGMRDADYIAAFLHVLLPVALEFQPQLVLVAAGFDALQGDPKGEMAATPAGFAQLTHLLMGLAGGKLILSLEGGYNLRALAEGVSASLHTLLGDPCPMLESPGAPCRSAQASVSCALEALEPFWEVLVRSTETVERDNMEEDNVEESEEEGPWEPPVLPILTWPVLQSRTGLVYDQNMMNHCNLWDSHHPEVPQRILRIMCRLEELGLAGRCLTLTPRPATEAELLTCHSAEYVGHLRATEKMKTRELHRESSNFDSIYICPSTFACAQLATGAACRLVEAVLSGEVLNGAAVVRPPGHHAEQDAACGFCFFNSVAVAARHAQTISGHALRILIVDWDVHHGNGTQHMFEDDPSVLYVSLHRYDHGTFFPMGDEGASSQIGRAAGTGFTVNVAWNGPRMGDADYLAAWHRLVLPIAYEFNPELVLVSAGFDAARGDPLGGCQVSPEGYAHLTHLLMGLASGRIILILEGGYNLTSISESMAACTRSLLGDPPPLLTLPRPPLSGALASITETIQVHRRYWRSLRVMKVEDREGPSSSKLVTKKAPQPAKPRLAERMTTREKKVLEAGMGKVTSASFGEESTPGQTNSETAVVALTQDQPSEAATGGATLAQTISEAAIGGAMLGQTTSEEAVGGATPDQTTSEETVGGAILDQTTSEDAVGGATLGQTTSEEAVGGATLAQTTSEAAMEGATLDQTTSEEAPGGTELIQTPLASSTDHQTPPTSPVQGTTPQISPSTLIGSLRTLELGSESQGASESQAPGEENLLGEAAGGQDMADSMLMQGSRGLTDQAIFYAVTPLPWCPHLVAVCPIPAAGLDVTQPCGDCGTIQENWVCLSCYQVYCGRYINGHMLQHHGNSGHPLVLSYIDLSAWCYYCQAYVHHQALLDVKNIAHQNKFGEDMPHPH
As to the kind of experiment: Inhibition of HDAC6 (unknown origin).

Data set [13] deals with Histone deacetylase 1 (Homo sapiens, UniProt Q13547). As to the kind of experiment: Inhibition of HDAC1 (unknown origin).
Data set [14] concerns the target Histone deacetylase 3 (Homo sapiens, UniProt O15379). As to the kind of experiment: Inhibition of HDAC3 (unknown origin).
For data set [15], the target named is T2, Histone deacetylase 8 (Homo sapiens, UniProt Q9BY41).
T2 sequence (Q9BY41 whole entry): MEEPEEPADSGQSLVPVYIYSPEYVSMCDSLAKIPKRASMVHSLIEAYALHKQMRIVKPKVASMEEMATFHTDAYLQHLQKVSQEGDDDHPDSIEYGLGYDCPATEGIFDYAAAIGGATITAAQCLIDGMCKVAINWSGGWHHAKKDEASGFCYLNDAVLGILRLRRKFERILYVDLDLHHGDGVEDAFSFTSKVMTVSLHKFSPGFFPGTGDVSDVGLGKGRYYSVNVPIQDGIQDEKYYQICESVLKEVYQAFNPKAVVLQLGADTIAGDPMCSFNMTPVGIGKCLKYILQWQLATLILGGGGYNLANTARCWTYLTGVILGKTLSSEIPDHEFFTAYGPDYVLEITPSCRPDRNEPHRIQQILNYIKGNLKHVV
As to the kind of experiment: Inhibition of HDAC8 (unknown origin).

Some results are limits rather than exact numbers.

Sequence of Histone deacetylase 3 (O15379 whole entry): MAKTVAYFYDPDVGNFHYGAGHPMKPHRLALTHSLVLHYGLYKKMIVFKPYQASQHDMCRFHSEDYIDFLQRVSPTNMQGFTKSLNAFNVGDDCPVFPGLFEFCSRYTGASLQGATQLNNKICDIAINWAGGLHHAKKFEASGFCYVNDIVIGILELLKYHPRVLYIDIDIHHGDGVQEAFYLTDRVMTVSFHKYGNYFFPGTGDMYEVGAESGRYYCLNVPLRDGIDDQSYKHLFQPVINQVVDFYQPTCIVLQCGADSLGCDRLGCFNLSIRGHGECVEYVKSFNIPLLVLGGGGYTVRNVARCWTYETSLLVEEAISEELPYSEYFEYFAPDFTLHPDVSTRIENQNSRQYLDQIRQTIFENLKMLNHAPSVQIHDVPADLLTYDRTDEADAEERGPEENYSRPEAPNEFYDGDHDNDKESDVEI
Sequence of Histone deacetylase 1 (Q13547 whole entry): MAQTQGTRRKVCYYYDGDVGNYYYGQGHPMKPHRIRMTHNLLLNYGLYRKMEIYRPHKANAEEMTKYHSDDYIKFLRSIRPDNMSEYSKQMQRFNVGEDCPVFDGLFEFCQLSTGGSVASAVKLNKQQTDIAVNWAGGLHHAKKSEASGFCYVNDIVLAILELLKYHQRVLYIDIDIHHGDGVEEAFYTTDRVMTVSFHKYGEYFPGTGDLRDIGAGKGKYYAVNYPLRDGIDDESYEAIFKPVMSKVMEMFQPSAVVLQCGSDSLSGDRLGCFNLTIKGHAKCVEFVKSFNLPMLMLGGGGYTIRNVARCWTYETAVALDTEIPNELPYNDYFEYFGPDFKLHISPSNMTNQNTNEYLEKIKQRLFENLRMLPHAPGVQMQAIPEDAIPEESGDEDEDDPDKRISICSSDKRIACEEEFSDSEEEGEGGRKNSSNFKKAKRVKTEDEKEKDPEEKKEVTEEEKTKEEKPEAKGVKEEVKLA

For `CC(C)=CCCC(C)CNNC(=O)CCCCCCNC(=O)c1cnc(-c2ccc(NC(=O)OC(C)(C)C)cc2)s1` (stereo unspecified), the inhibition at 10 µM in [1] is 58.7%; in data set [2], 40.5%; in [3] it was 57.2%; in data set [4] it was 53.5%; in data set [5], 66.8%.

Consider `CCCNNC(=O)CCCCCCNC(=O)c1cnc(-c2cccc(C)c2)s1`, for which the inhibition at 10 µM in data set [1] is 61.7%; in [2], less than 20%; in data set [3], less than 50%; in data set [4] it was less than 50%; in data set [5], less than 50%.

For `CCCCCCCCCNNC(=O)CCCCCCNC(=O)c1cnc(-c2ccc(NC(=O)OC(C)(C)C)cc2)s1`, the inhibition at 10 µM in data set [1] was 59.7%; in data set [2], less than 20%; in [3], 45%; in [4], 55.2%; in [5], less than 50%.

`C=CCNNC(=O)CCCCCCNC(=O)c1cnc(-c2ccc(NC(=O)OC(C)(C)C)cc2)s1`: the inhibition at 10 µM in [1] was 58.2%; in data set [2], 61.2%; in data set [3], 64.6%; in data set [4], 63.7%; in data set [5], 53.5%.

Turning to `CCCNNC(=O)CCCCCNC(=O)c1cnc(-c2c[nH]c3ccccc23)s1`, the inhibition at 10 µM in [1] is 36.5%; in [2], less than 20%; in [3], less than 50%; in [4], less than 50%; in data set [5] it was less than 50%.

For the compound `CCCNNC(=O)CCCCCNC(=O)c1cnc(-c2ccc(Cl)cc2)s1`, the inhibition at 10 µM in data set [1] was 58.2%; in [2], 21.5%; in [3], less than 50%; in data set [4], less than 50%; in data set [5] it was less than 50%.

As for `CCCNNC(=O)CCCCCCNC(=O)c1cnc(-c2ccc(OC(F)(F)F)c(OC(F)(F)F)c2)s1`, the inhibition at 10 µM in [1] came to 88.8%; in [2] it was 20.5%; in data set [3], 62.7%; in [4], 69.5%; in data set [5], 54.5%.

Consider `CCCNNC(=O)CCCCCNC(=O)c1cnc(-c2ccc(Cl)cc2Cl)s1`, for which the inhibition at 10 µM in [1] was 54%; in data set [2] it was less than 20%; in [3] it was less than 50%; in data set [4], less than 50%; in [5] it was less than 50%.

On to `CCCNNC(=O)c1ccc(NC(=O)c2cnc(-c3ccc(F)cc3)s2)cc1`, for which the inhibition at 10 µM in [1] was less than 50%; in [2] it was less than 20%; in [3], less than 50%; in data set [4] it was 69.6%; in data set [5], less than 50%.

In the case of `CCCNNC(=O)CCCCCNC(=O)c1cnc(-c2ccc(OC(F)(F)F)cc2)s1`, the inhibition at 10 µM in data set [1] is 62.9%; in data set [2], 31.9%; in data set [3] it was less than 50%; in data set [4] it was 69.5%; in data set [5] it was less than 50%.

With `CCCNNC(=O)CCCCCNC(=O)c1cnc(-c2ccc(F)cc2F)s1`, the inhibition at 10 µM in [1] is 62.9%; in data set [2], 21.7%; in data set [3] it was less than 50%; in [4], 59.8%; in [5], less than 50%.

`Nc1ccccc1NC(=O)c1ccc(CNC(=O)OCc2cccnc2)cc1` [ENTINOSTAT]: the inhibition at 10 µM in data set [1] came to 94.6%; in data set [2], 43.4%; in [3], 50.2%; in data set [4], 70.5%; in [5] it was 46.2%. The same compound returned a half-inhibitory concentration (IC50) at 72 h in data set [6] of 13.5 µM. The IC50 in data set [7] is 11 µM; in [8], 0.79 µM; in data set [9], 8.82 µM; in data set [10] it was 0.91 µM; in data set [11], 8.33 µM.

For the compound `CC(C)CNNC(=O)CCCCCCNC(=O)c1cnc(-c2ccc(NC(=O)OC(C)(C)C)cc2)s1`, the inhibition at 10 µM in [1] was found to be 59%; in [2], 23.9%; in data set [3] it was 39.2%; in data set [4] it was 55.9%; in [5], 51%.

In the case of `CCCNNC(=O)CCCCCNC(=O)c1cnc(-c2ccc(NC(=O)OC(C)(C)C)cc2)s1`, the inhibition at 10 µM in data set [1] was 53.6%; in data set [2], 27.1%; in [3], less than 50%; in [4], 68.9%; in [5], less than 50%.

On to `CCCNNC(=O)CCCCCNC(=O)c1cnc(-c2ccc3ccccc3c2)s1`, for which the inhibition at 10 µM in [1] was 58.5%; in data set [2] it was less than 20%; in data set [3], less than 50%; in data set [4] it was 59.8%; in [5], less than 50%.

`CCCNNC(=O)CCCCCNC(=O)c1cnc(-c2ccc(C(F)(F)F)cc2)s1`: the inhibition at 10 µM in data set [1] is less than 50%; in [2], 38.9%; in data set [3], 70.9%; in [4] it was less than 50%; in data set [5], 59.6%.

Compound `CCCNNC(=O)CCCCCCNC(=O)c1cnc(-c2ccc3[nH]ccc3c2)s1` returned an IC50 at 72 h in [6] of 10.1 µM. Further, the IC50 in data set [12] was more than 10 µM; in data set [7] it was 9.36 µM; in [13] it was 1.57 µM; in data set [8], 1.46 µM; in data set [9] it was 9.82 µM; in [14], 0.42 µM. The IC50 in [15] was more than 10 µM; in data set [10], 8.15 µM; in [11] it was 5.06 µM.

With `CC(C)(C)OC(=O)Nc1ccc(-c2ncc(C(=O)NCCCCCCC(=O)NNCC3CC3)s2)cc1`, the inhibition at 10 µM is 85.8% in data set [1]; 21.4% in data set [2]; 57.5% in data set [3]; 71.3% in data set [4]; 52.1% in [5].

For the compound `CCCNNC(=O)CCCCCCNC(=O)c1cnc(-c2ccc3c(c2)OCO3)s1`, the inhibition at 10 µM turned out to be 68.4% in data set [1]; 22.1% in data set [2]; 86.8% in data set [3]; 68.9% in data set [4]; 59.6% in [5].

Take `CCCNNC(=O)CCCCCCNC(=O)c1cnc(-c2c[nH]c3ccccc23)s1`: the inhibition at 10 µM in data set [1] is 72.7%; in [2], 21.8%; in data set [3], 53%; in [4], 67.7%; in data set [5] it was less than 50%.

Regarding `CCCNNC(=O)CCCCCNC(=O)c1cnc(-c2cccc(OC)c2)s1`, the inhibition at 10 µM in data set [1] was less than 50%; in data set [2] it was less than 20%; in data set [3] it was less than 50%; in data set [4] it was less than 50%; in [5], less than 50%.

On to `CCCNNC(=O)CCCCCNC(=O)c1cnc(-c2cccc3ccccc23)s1`, for which the inhibition at 10 µM in data set [1] was 60.6%; in [2] it was less than 20%; in [3] it was less than 50%; in [4], 67.5%; in [5], less than 50%.
